Data on 3 molecules can be found in patent US20230158068A1 (priority 2020, published 2023).

Data set [1] concerns U937 cells. Description: CD marker expression in PMA treated U937 cells (flow cytometry). It counts as cell-based, human. On the procedure: Human monocytic U937 cells derived from pleural effusion were seeded at 5×10^5 cells/mL in a 24 well plate or on the underside of a culture insert with 3.25×10^5 cells per well with 100 nM phorbol 12-myristate 13-acetate (PMA) (dissolved in DMSO; <1% v/v) in complete RPMI medium (10% v/v FBS, 1% v/v penicillin-streptomycin, 2 mM L-glutamine). Cells were incubated for 72 h at 37° C., 5% v/v CO2 in a humidified incubator to differentiate the cells to mature macrophages. Following PMA incubation, media was replaced with fresh CCM and incubated for a further 24 h rest period. After the 24 h rest phase, U937/MØ were ready for co-culture assembly. U937/MØ cells were prepared in line with when epithelial cells were ready, i.e. day 5 for A549 and day 10 for hAELVi cells.
FIG. 3 illustrates the expression profiles of selected CD markers in PMA treated U937 cells and primary alveolar macrophages (pAM). CD markers are: (A) CD 11a, (B) CD 11b, (C) CD 14, (D) CD 36 and (E) CD 206. U937 cells treated with (0 nM, 5 nM, and 100 nM) PMA for 24 h to-96 h followed by a 24 h rest period in fresh culture medium. Expression of CD markers was measured by flow cytometry and are presented as median fluorescent intensity (MFI±SEM). […]

The test system of data set [2] is U937 cells. Description: Long-term proliferation of PMA treated U937 cells (Guava ViaCount assay). It counts as cell-based, human. As to conditions: 100 nM PMA. On the procedure:
FIG. 6 illustrates the long-term proliferation of PMA treated U937 cells. […] Cell proliferation was assessed using Guava ViaCount assay via flow cytometry for 10,000 events. Results shown are representative for two repeated experiments performed in triplicate. Viable cells/mL are shown as mean±SD.

The subject of data set [3] is U937 cells. Description: Phagocytic activity of PMA treated U937 cells. It counts as cell-based, human. Particulars: 72 h, 100 nM PMA differentiation protocol. From the text: FIG. 4 illustrates the phagocytic activity of PMA treated U937 cells and primary alveolar macrophages (pAM). Percentage of phagocytic cells (mean±SEM) from PMA treated U937 cells. (n=9) for each time point for U937 cells and n=3 for primary cells.

Data set [4] deals with U937 cells. Put plainly: Morphology of U937 cells with exposure to PMA. As to conditions: 72 h, 100 nM PMA differentiation protocol. The format is cell-based, human. On the procedure:
FIG. 5 illustrates the morphology of U937 cells with exposure to PMA. U937 cells were cultured on chamber slides with medium supplemented with either 0 nM, 5 nM or 100 nM PMA and incubated for 24 h, 48 h, 72 h and 96 h followed by a 24 h recovery phase in fresh medium. Non-adherent PMA naive cells required centrifuge preparation. Primary human alveolar macrophages were harvested for morphological comparison. The cells were photographed at ×400 magnification with an inverted light microscope. (50 um scale bar).

Data set [5] concerns differentiated U937 cells. Description: Phospholipidosis accumulation in differentiated U937 cells in co-culture set ups (HCS LipidTOX Green). The format is cell-based, human. Particulars: 10 μM amiodarone; differentiated U937 cells in three co-culture set ups.
Experimental: The phospholipid accumulation was assessed using HCS LipidTOX™ Green phospholipidosis detection reagent. Phospholipidosis accumulation was detected in differentiated U937 cells cultured in LLI in three different co-culture set ups: A) Type I/II cells cultured in mixed 10:1 ratio in apical compartment, differentiated U937 (lilac) cells cultured at the basolateral compartment B) Type I/II cells cultured as a layers in a 10:1 ratio in apical compartment, differentiated U937 cells cultured at the basolateral compartment (blue), C) Type I cells cultured in the apical compartment and differentiated U937 cells were seeded on the underside of Transwell® inserts (green). […] A total of 5000 events were acquired on the flow cytometer.
Data set [6] deals with differentiated U937 cells (MØ), T I model, T II model. Put plainly: CD marker expression in LPS stimulated alveoli models (flow cytometry). It counts as cell-based, human. Particulars: 10 ng/mL LPS, 24 h. On the procedure: FIG. 17 illustrates CD marker expressions in LPS stimulated and non-stimulated alveoli models. Differentiated U937 cells (MØ), MØ cells cultured with hAELVi cells (T I model) or A549 cells (T II model) exposed to 10 ng/mL LPS (+LPS) for 24 h. Direct immunofluorescent staining assays for CD 11 b (A &C) and CD 36 (B & D) surface markers were performed using flow cytometry. A total of 5000 gated events were collected for each sample. MFI (median fluorescent intensity) data shown as mean±sd (n=9) for 3 independent models for Dunnett's post hoc test after one-way ANOVA where *#:p<0.005, *** :p<0.0001 vs MØ and MØ+LPS respectively.

Data set [7] concerns hAELVi and A549 cells in co-culture with MØ cells. Put plainly: TEER of alveolar epithelial cells in co-culture with LPS. As to conditions: 10 ng/mL LPS, 24 h. It counts as cell-based, human. As to the method:
FIGS. 26A and 26B illustrate the impact of LPS on barrier properties of alveolar epithelial cells in co-culture. TEER measurements of (T I) hAELVi and (T II) A549 cells in co-culture with MØ cells. MØ cells cultured with hAELVi cells (T I model) or A549 cells (T II model) were exposed to 10 ng/mL LPS (+LPS) for 24 h. A one-way ANOVA was used to determine significance for each treatment group. Data shown represent n=3 of three independent cell model experiments (p>0.05).

In data set [8] the test system is T I model (hAELVi + MØ), T II model (A549 + MØ). Put plainly: LDH release from co-cultures with LPS (cell health). The format is cell-based, human. As to conditions: 10 ng/mL LPS, 24 h; both co-culture models. As to the method: FIGS. 25A and 25B illustrate the comparison of mono-culture and co-culture construction on cell health. Percentage of maximum LDH released into supernatants from cell populations normalised to 0.1% v/v Triton-X 100 positive control. LDH released from co-cultures: (T I) hAELVi and (T II) A549 cells in co-culture with MØ cells were assessed (A). MØ cells cultured with hAELVi cells (T I model) or A549 cells (T II model) were exposed to 10 ng/mL LPS (+LPS) for 24 h (B). A one way ANOVA was used to determine significance for each treatment group and Tukey's multiple comparison post hoc test employed when* p<0.05, p<0.001 Data shown represent n=6 data points±SD of three independent cell model experiments.

Data set [9] relates to co-culture models. Description: IL-8 secretion of co-culture models after LPS (ELISA). It counts as cell-based, human. Particulars: 100 ng/ml LPS. As to the method: FIG. 36 illustrates extent of immune response using IL-8 secretion. […] IL-8 levels detected from supernatants of co-culture models cultured under LLI/ALI post exposure to 100 ng/ml LPS. The IL-8 levels were quantified using ELISA assay. […] N=4, * indicates (p<0.05).
(An ELISA detects its analyte on a solid surface through an enzyme-linked reagent.)

Data set [10] deals with differentiated U937 cells (MØ). Description: Phagocytic activity of differentiated U937 cells in mono-culture and co-cultures in the presence of LPS. The format is cell-based, human. Particulars: 10 ng/mL LPS, 24 h; both co-culture systems. As to the method: FIG. 23 illustrates a comparison of macrophages in mono-culture and co-cultures phagocytosis of microspheres. Differentiated U937 cells (MØ), MØ cells cultured with hAELVi cells (T I model) or A549 cells (T II model) exposed to 10 ng/mL LPS (+LPS) for 24 h. Phagocytosis assays were performed after 2 h incubation with 1.0 μm FluoSpheres™ Carboxylate-Modified microspheres using fluorescent microscopy. Images at 40× magnification. Scale bar is 100 μm.
FIGS. 24A and 24B illustrate phagocytic activity of differentiated U937 cells (MØ) in mono-culture and co-cultures in the presence of LPS. MØ cells cultured with hAELVi cells (T I model) or A549 cells (T II model) exposed to 10 ng/mL LPS (+LPS) for 24 h. Phagocytosis assays were performed after 2 h incubation with 1.0 μm FluoSpheres™ Carboxylate-Modified microspheres using flow cytometry. Cells were gated for 1000 events (A) per sample. […] Percentage of cells above the gated (R3) threshold (B) of mono and co-cultures. A one way ANOVA was used to determine significance for each treatment group and Tukey's multiple comparison post hoc test employed when* p<0.05, *** : p<0.0001 where n=3 independent models.

In data set [11] the test system is MØ, T I model, T II model. Put plainly: Human cytokine profile of mono-culture and co-culture models in LPS (array membranes). The format is cell-based. Particulars: LPS 100 ng/mL, 24 h. As to the method: FIG. 18 illustrates human cytokine profile of lower airway for ALI cell models. Detection of spots on array membranes from supernatant collect from mono-culture and co-cultures of: differentiated U937 cells (MØ) with LPS (MØ+LPS), hAELVi TI cells (T I), A549 TII cells (T II), type I co-culture model: hAELVi and MØ (T I model) with LPS (T I model+LPS), type II co-culture model: A549 and MØ (T II model) with LPS (T II model+LPS). Models were untreated or stimulated with 100 ng/mL LPS for 24 h. Controls are shown as positive (green) and negative (red). Data represents four independent Transwell® inserts. […] The data analysed in more detail in below figures.
FIG. 21 illustrates human cytokine profile of lower airway; T I &T I I models in the presence of LPS. […] Data represents mean signal intensity (AU) of each protein spot from the blot detected using chemiluminescence imaging and quantified using imageJ software for four independent Transwell® inserts±sd. […]
FIG. 22 illustrates human cytokine profile of lower airway of mono-culture and co-culture models in LPS. […] Data analysed by two-way ANOVA with Bonferroni post hoc test of non-stimulated cells vs LPS stimulation. […]

Consider `CCCCCCCCCCCCCC(=O)O[C@@H]1[C@@H](C)[C@@]2(O)[C@@H](C=C(CO)C[C@]3(O)C(=O)C(C)=C[C@@H]23)[C@@H]2C(C)(C)[C@]12OC(C)=O` [PMA, phorbol-12-myristate-13-acetate], for which, in data set [1] (PMA treated U937 cells), the “expression of CD36 and CD206 (M2 markers)” value was “low”. Further, in data set [1] (U937 cells, 100 nM PMA, 72 h, 24 h rest, compared with primary human alveolar macrophages), the “expression of cell surface markers selected to identify an alveolar macrophage phenotype (CD 11a, CD 11b, CD 14)” value is on record as “optimally expressed”. For the same molecule, the figures for the cell proliferation result in data set [2] (24 h exposure) and in [2] (96 h exposure) were “reduced” and “no”, respectively. The phagocytic functionality result in data set [3] is listed as “same phagocytic functionality of primary human alveolar macrophages”. Moreover, the cell morphology result in [4] is “most similar morphology to primary human alveolar macrophages”.

As for `CCCCc1oc2ccccc2c1C(=O)c1cc(I)c(OCCN(CC)CC)c(I)c1` [amiodarone], the phospholipidosis accumulation entry in [5] is recorded as “detected”.

For lipopolysaccharide [LPS], the “macrophage activation (CD11 b expression, absence of CD36 expression)” value in data set [6] is “likely to drive the macrophages to M1 type activation”. For the same molecule, the “barrier properties of the alveolar type I epithelial cells (TEER)” value in data set [7] is reported as “not compromised”. For the same molecule, the “cell viability (LDH release)” value in data set [8] is listed as “not adversely affected”. Moreover, the IL-8 secretion entry in data set [9] (all models) is listed as “significantly increased”; in data set [9] (combination type I and II epithelial models), “significantly elevated”. Further, the “ability to phagocytose (1.0 μm microspheres)” value in [10] is listed as “retain their ability to phagocytose”. In data set [11], the “cytokine markers (signal intensity on array)” value was “elevated”.
